Assay results reported in patent US20260242371A1, “LIPID PRODRUGS OF BROM[…] USES THEREOF” (priority 2023, published 2026).

Target: T1, recombinant human monoacylglyceride lipase (rhMAGL) (Homo sapiens, UniProt Q99685)
T1 sequence (Q99685 1-303): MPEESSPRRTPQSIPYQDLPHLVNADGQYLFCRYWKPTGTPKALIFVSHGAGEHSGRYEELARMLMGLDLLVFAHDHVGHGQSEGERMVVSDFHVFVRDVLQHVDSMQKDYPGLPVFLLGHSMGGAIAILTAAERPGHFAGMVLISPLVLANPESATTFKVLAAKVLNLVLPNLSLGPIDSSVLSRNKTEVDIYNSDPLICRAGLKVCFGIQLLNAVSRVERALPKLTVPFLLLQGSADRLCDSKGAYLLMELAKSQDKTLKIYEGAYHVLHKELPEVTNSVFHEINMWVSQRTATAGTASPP
Experiment: In vitro monoglyceride stability of lipid prodrugs with lipoprotein lipase and rhMAGL
Format: in vitro ADME
Settings: 50 μM prodrug, 10 mg/mL BSA, LPL 300 units/mL, 180 vs 30 minutes, 37° C., scale −10 to 10
Procedure: The stability of lipid prodrugs of 2-bromo-LSD was evaluated in the presence or absence of recombinant human monoacylglyceride lipase (rhMAGL). 50 µM of prodrug was incubated in 10 mg/mL BSA supplemented with lipoprotein lipase (300 units/mL) and rhMAGL (0-0.5 μg/mL). The concentration of MAGL may be adjusted based on observed activity. Reactions were initiated via the addition of prodrug and incubated at 37° C. for 180 minutes. Aliquots were removed at 30, 60, 120, and 180 minutes and the reaction quenched with the addition of cold acetonitrile spiked with internal standard(s) (1:3 sample to acetonitrile). Samples were vortexed and centrifuged and the supernatant transferred and diluted in 0.1% formic acid water (1:3 supernatant to 0.1% formic acid water). Samples were analyzed via LC-MS. Monoglyceride stability was calculated using the following equations:
LPL MG Ratio=MG Peak Area at 180 minutes for LPL only/MG Peak area at 30 minutes for LPL only
rhMAGLMG Ratio=MG Peak Area at 180 minutes for LPLand rhMAGL/MG Peak Area at 30 minutes for LPLand rhMAGL
MG Stability=((rhMAGLMG Ratio−(1−LPL MG Ratio))*10
Stability is calculated on a scale of −10 to 10, with 10 representing 100% monoglyceride remaining (i.e., highest stability) and −10 representing 100% monoglyceride loss (i.e., lowest stability). Monoglyceride stability is represented by the following categories, wherein A is a stability score of 5 to 10, B is a stability score of 0 to 5, C is a stability score of −5 to 0, and D is a stability score of −5 to −10.

Structure (SMILES): CCCCCCCC/C=C\CCCCCCCC(=O)OCC(COC(=O)CCCCCCC/C=C\CCCCCCCC)OC(=O)CC(C)CC(=O)n1c(Br)c2c3c(cccc31)C1=C[C@@H](C(=O)N(CC)CC)CN(C)[C@@H]1C2 (stereo partly shown) [Compound I-1, 2BL-C5bMe-2-TG-oleate]
- Monoacylglyceride Stability: A (A is a stability score of 5 to 10)

Structure (SMILES): CCCCCCCC/C=C\CCCCCCCC(=O)OCC(COC(=O)CCCCCCC/C=C\CCCCCCCC)OC(=O)CC(C)CCCCC(=O)n1c(Br)c2c3c(cccc31)C1=C[C@@H](C(=O)N(CC)CC)CN(C)[C@@H]1C2 (stereo partly shown) [Compound I-2, 2BL-C8bMe-2-TG-oleate]
- Monoacylglyceride Stability: A (A is a stability score of 5 to 10)

Structure (SMILES): CCCCCCCC/C=C\CCCCCCCC(=O)OCC(COC(=O)CCCCCCC/C=C\CCCCCCCC)OC(=O)CC(C)CCCCCCC(C)CC(=O)n1c(Br)c2c3c(cccc31)C1=C[C@@H](C(=O)N(CC)CC)CN(C)[C@@H]1C2 (stereo partly shown) [Compound I-3, 2BL-C12b′bMe-2-TG-oleate]
- Monoacylglyceride Stability: B (B is a stability score of 0 to 5)

Structure (SMILES): CCCCCCCC/C=C\CCCCCCCC(=O)OCC(COC(=O)CCCCCCC/C=C\CCCCCCCC)OC(=O)CC(C)CC(=O)OCn1c(Br)c2c3c(cccc31)C1=C[C@@H](C(=O)N(CC)CC)CN(C)[C@@H]1C2 (stereo partly shown) [Compound I-4, 2BL-ASI-C5bMe-2-TG-oleate]
- Monoacylglyceride Stability: D (D is a stability score of −5 to −10)

Structure (SMILES): CCCCCCCC/C=C\CCCCCCCC(=O)OCC(COC(=O)CCCCCCC/C=C\CCCCCCCC)OC(=O)CC(C)CCCCC(=O)OCn1c(Br)c2c3c(cccc31)C1=C[C@@H](C(=O)N(CC)CC)CN(C)[C@@H]1C2 (stereo partly shown) [Compound I-5, 2BL-ASI-C8bMe-2-TG-oleate]
- Monoacylglyceride Stability: C (C is a stability score of −5 to 0)

Structure (SMILES): CCCCCCCC/C=C\CCCCCCCC(=O)OCC(COC(=O)CCCCCCC/C=C\CCCCCCCC)OC(=O)CC(C)CCCCCCCCC(=O)OCn1c(Br)c2c3c(cccc31)C1=C[C@@H](C(=O)N(CC)CC)CN(C)[C@@H]1C2 (stereo partly shown) [Compound I-6, 2BL-ASI-C12bMe-2-TG-oleate]
- Monoacylglyceride Stability: C (C is a stability score of −5 to 0)

Structure (SMILES): CCCCCCCC(=O)OCC(COC(=O)CCCCCCC)OC(=O)CC(C)CC(=O)OCOC(=O)n1c(Br)c2c3c(cccc31)C1=C[C@@H](C(=O)N(CC)CC)CN(C)[C@@H]1C2 (stereo partly shown) [Compound I-7, 2BL-CASI-C5bMe-2-TG-octanoate]
- Monoacylglyceride Stability: A (A is a stability score of 5 to 10)

Structure (SMILES): CCCCCCCC(=O)OCC(COC(=O)CCCCCCC)OC(=O)CC(C)(C)CC(=O)OCOC(=O)n1c(Br)c2c3c(cccc31)C1=C[C@@H](C(=O)N(CC)CC)CN(C)[C@@H]1C2 [Compound I-9, 2BL-CASI-C5bbGMe-2-TG-octanoate]
- Monoacylglyceride Stability: A (A is a stability score of 5 to 10)

Structure (SMILES): CCCCCCCC/C=C\CCCCCCCC(=O)OCC(COC(=O)CCCCCCC/C=C\CCCCCCCC)OC(=O)CC(C)CC(=O)OCCCC(=O)n1c(Br)c2c3c(cccc31)C1=C[C@@H](C(=O)N(CC)CC)CN(C)[C@@H]1C2 (stereo partly shown) [Compound I-14, 2BL-FSI4-C5bMe-2-TG-oleate]
- Monoacylglyceride Stability: A (A is a stability score of 5 to 10)

Structure (SMILES): CCCCCCCC(=O)OCC(COC(=O)CCCCCCC)OC(=O)CC(C)(C)CC(=O)OCCCC(=O)n1c(Br)c2c3c(cccc31)C1=C[C@@H](C(=O)N(CC)CC)CN(C)[C@@H]1C2 [Compound I-15, 2BL-FSI4-C5bbGMe-2-TG-octanoate]
- Monoacylglyceride Stability: B (B is a stability score of 0 to 5)

Structure (SMILES): CCCCCCCC(=O)OCC(COC(=O)CCCCCCC)OC(=O)CC(C)(C)CC(=O)OCCCCC(=O)n1c(Br)c2c3c(cccc31)C1=C[C@@H](C(=O)N(CC)CC)CN(C)[C@@H]1C2 [Compound I-16, 2BL-FSI5-C5bbGMe-2-TG-octanoate]
- Monoacylglyceride Stability: A (A is a stability score of 5 to 10)

Structure (SMILES): CCCCCCCC/C=C\CCCCCCCC(=O)OCC(COC(=O)CCCCCCC/C=C\CCCCCCCC)OC(=O)CC(C)CC(=O)OCCCCC(=O)n1c(Br)c2c3c(cccc31)C1=C[C@@H](C(=O)N(CC)CC)CN(C)[C@@H]1C2 (stereo partly shown) [Compound I-17, 2BL-FSI5-C5bMe-2-TG-oleate]
- Monoacylglyceride Stability: A (A is a stability score of 5 to 10)

Structure (SMILES): CCCCCCCC(=O)OCC(COC(=O)CCCCCCC)OC(=O)CC1(CC(=O)OCCCCC(=O)n2c(Br)c3c4c(cccc42)C2=C[C@@H](C(=O)N(CC)CC)CN(C)[C@@H]2C3)CC1 [Compound I-18, 2BL-FSI5-C5bcPr-2-TG-octanoate]
- Monoacylglyceride Stability: A (A is a stability score of 5 to 10)

Structure (SMILES): CCCCCCCC(=O)OCC(COC(=O)CCCCCCC)OC(=O)CC(C)(C)CCC(=O)OCCCCC(=O)n1c(Br)c2c3c(cccc31)C1=C[C@@H](C(=O)N(CC)CC)CN(C)[C@@H]1C2 [Compound I-19, 2BL-FSI5-C6bbGMe-2-TG-octanoate]
- Monoacylglyceride Stability: A (A is a stability score of 5 to 10)

Structure (SMILES): CCCCCCCC/C=C\CCCCCCCC(=O)OCC(COC(=O)CCCCCCC/C=C\CCCCCCCC)OC(=O)CC(C)CC(=O)Oc1ccc(Cn2c(Br)c3c4c(cccc42)C2=C[C@@H](C(=O)N(CC)CC)CN(C)[C@@H]2C3)cc1 (stereo partly shown) [Compound I-20, 2BL-PHB-C5bMe-2-TG-oleate]
- Monoacylglyceride Stability: A (A is a stability score of 5 to 10)

Structure (SMILES): CCCCCCCC/C=C\CCCCCCCC(=O)OCC(COC(=O)CCCCCCC/C=C\CCCCCCCC)OC(=O)CC(C)CC(=O)Oc1ccc(COC(=O)n2c(Br)c3c4c(cccc42)C2=C[C@@H](C(=O)N(CC)CC)CN(C)[C@@H]2C3)cc1 (stereo partly shown) [Compound I-21, 2BL-CPHB-C5bMe-2-TG-oleate]
- Monoacylglyceride Stability: A (A is a stability score of 5 to 10)

Structure (SMILES): CCCCCCCC(=O)OCC(COC(=O)CCCCCCC)OC(=O)CC(C)(C)CCC(=O)OCCCC(=O)n1c(Br)c2c3c(cccc31)C1=C[C@@H](C(=O)N(CC)CC)CN(C)[C@@H]1C2 [Compound I-22, 2BL-FSI4-C6bbGMe-2-TG-octanoate]
- Monoacylglyceride Stability: A (A is a stability score of 5 to 10)

Structure (SMILES): CCCCCCCC(=O)OCC(COC(=O)CCCCCCC)OC(=O)CC(C)(C)CCC(=O)OCOC(=O)n1c(Br)c2c3c(cccc31)C1=C[C@@H](C(=O)N(CC)CC)CN(C)[C@@H]1C2 [Compound I-23, 2BL-CASI-C6bbGMe-2-TG-octanoate]
- Monoacylglyceride Stability: A (A is a stability score of 5 to 10)

Structure (SMILES): CCCCCCCC/C=C\CCCCCCCC(=O)OCC(COC(=O)CCCCCCC/C=C\CCCCCCCC)OC(=O)CC(C)CCCCCCC(=O)n1c(Br)c2c3c(cccc31)C1=C[C@@H](C(=O)N(CC)CC)CN(C)[C@@H]1C2 (stereo partly shown) [Compound I-24, 2BL-C10bMe-2-TG-oleate]
- Monoacylglyceride Stability: A (A is a stability score of 5 to 10)

Structure (SMILES): CCCCCCCC(=O)OCC(COC(=O)CCCCCCC)OC(=O)CC1(CC(=O)OCn2c(Br)c3c4c(cccc42)C2=C[C@@H](C(=O)N(CC)CC)CN(C)[C@@H]2C3)CC1 [Compound I-25, 2BL-ASI-C5bcPr-2-TG-octanoate]
- Monoacylglyceride Stability: D (D is a stability score of −5 to −10)

Structure (SMILES): CCCCCCCC(=O)OCC(COC(=O)CCCCCCC)OC(=O)CC1(CC(=O)n2c(Br)c3c4c(cccc42)C2=C[C@@H](C(=O)N(CC)CC)CN(C)[C@@H]2C3)CC1 [Compound I-26, 2BL-C5bcPr-2-TG-octanoate]
- Monoacylglyceride Stability: A (A is a stability score of 5 to 10)

Structure (SMILES): CCCCCCCC(=O)OCC(COC(=O)CCCCCCC)OC(=O)CC(C)(C)CCC(=O)OCn1c(Br)c2c3c(cccc31)C1=C[C@@H](C(=O)N(CC)CC)CN(C)[C@@H]1C2 [Compound I-27, 2BL-ASI-C6bbGMe-2-TG-octanoate]
- Monoacylglyceride Stability: D (D is a stability score of −5 to −10)

Structure (SMILES): CCCCCCCC(=O)OCC(COC(=O)CCCCCCC)OC(=O)CC(C)(C)CC(=O)OCn1c(Br)c2c3c(cccc31)C1=C[C@@H](C(=O)N(CC)CC)CN(C)[C@@H]1C2 [Compound I-28, 2BL-ASI-C5bbGMe-2-TG-octanoate]
- Monoacylglyceride Stability: D (D is a stability score of −5 to −10)

Structure (SMILES): CCCCCCCC(=O)OCC(COC(=O)CCCCCCC)OC(=O)CC1(CC(=O)OCOC(=O)n2c(Br)c3c4c(cccc42)C2=C[C@@H](C(=O)N(CC)CC)CN(C)[C@@H]2C3)CC1 [I-9′, 2BL-CASI-C5bcPr-2-TG-octanoate]
- Monoacylglyceride Stability: A (A is a stability score of 5 to 10)

Structure (SMILES): CCCCCCCC(=O)OCC(COC(=O)CCCCCCC)OC(=O)CC1(CC(=O)OCCCC(=O)n2c(Br)c3c4c(cccc42)C2=C[C@@H](C(=O)N(CC)CC)CN(C)[C@@H]2C3)CC1 [I-15′, 2BL-FSI4-C5bcPr-2-TG-octanoate]
- Monoacylglyceride Stability: A (A is a stability score of 5 to 10)
